Measured values published in patent US20070299029A1, “Hepatic stellate cell specific promoter and uses thereof” (Agency for Science, Technology and Research, priority 2005, published 2007).
Where two headings read alike, the source gives them in different places.

Legend:
[1] = Yang et al. (1998); cited from earlier work
T6/GFAP-lacZ cells [2] = test: tetrazolium-based proliferation assay of T6/GFAP-lacZ cells; type: cell-based, rat; settings: 48 hours, low serum (0.5% FBS) medium, read-out: IC50 of proliferation inhibition
Protocol: FIG. 14 illustrates that EGCG and genistein suppressed proliferation of the T6/GFAP-lacZ cells. Cells were grown in full medium to 70-80% confluence in 96-well plates, followed by compound treatment of various concentrations (0-40 μM) in a low serum medium for 48 hours before assaying for proliferation. Signal was normalized against vehicle treatment (0 μM compound). Data was obtained from three independent experiments and presented as mean ±SE.
However our genistein IC50 value for the T6/GFAP-lacZ cells was three times lower than that for the T6 cells cultured in DMEM containing 10% FBS (Kang et al., (2001) supra). Our additional data also confirmed that no significant difference in IC50 value was observed between the T6 and the T6/GFAP-lacZ cells (data not shown).

T6/GFAP-lacZ cells [3] = test: X-gal stained images of T6/GFAP-lacZ cells (cell number); type: cell-based, rat; settings: 24 hours, low serum (0.5% FBS) DMEM
Protocol: FIG. 15 depicts X-gal staining of T6/GFAP-lacZ cells. Incubation with A) DMSO vehicle control; B) 25 μM EGCG; and C) 40 μM genistein in a low serum DMEM for 24 hours. Images were captured after 60 min of X-gal staining;
(§1) A lacZ reporter assay kit for cell staining (InvivoGen, CA, USA) was used to detect the reporter gene activity in T6/GFAP-lacZ cells treated with EGCG or genistein. The staining results were documented with a digital camera (DP12) attached to an Olympus inverted bright field microscope (IX51) after development for 60 min. For quantification, the β-galactosidase activity in cell extracts was measured using a chemiluminescent assay kit (Roche, Mannheim, Germany) in a 96-well plate format, according to the manufacturer's instructions. Briefly, cells were washed twice with ice-cold 1×PBS (pH 7.4), lysed for 30 minutes at room temperature with the lysis buffer, and supernatant was collected for assays. Protein concentration was determined with a BCA protein assay kit (Pierce, Ill., USA). Specific β-galactosidase activity was obtained by normalizing against total cellular protein content.
EGCG is a major catechin from green tea leaves associated with a wide range of beneficial activities including anti-oxidation, anti-inflammation and anti-fibrosis, whereas genistein is a major flavonoid found abundantly in soy bean with anti-tumor and pro-apoptotic activities. […]

GFAP-lacZ transgene = test: chemiluminescent β-galactosidase activity assay of GFAP-lacZ transgene expression in T6/GFAP-lacZ cells; type: cell-based, rat
Protocol: (§2) Cells were initially seeded in 12-well plates in DMEM supplemented with 10% FBS and weaned to a low serum DMEM (0.5% FBS) at a confluence of 70-80% for 12 hours of adaptation. Cells were then incubated with different concentrations of compounds for various amounts of time before being assayed for β-galactosidase activity and GFAP mRNA. For compound attenuation studies, cells were treated with a pro-fibrotic cytokine (TGF-β1 or PDGF-BB) either sequentially or concurrently with a compound (EGCG or genistein). In the sequential scheme, cells were first treated with a cytokine for 1-3 days, then the cytokine-containing culture medium was replaced with a fresh medium containing a particular compound only for various times. Details of the cytokine/compound treatments can be found in the individual figure legends.
as §1

endogenous rat GFAP mRNA = test: real-time RT-PCR for endogenous rat GFAP mRNA in T6/GFAP-lacZ cells; type: cell-based
Protocol: as §2
Total RNA was reverse-transcribed to cDNA using Taqman's reverse transcription reagent (Applied Biosystems, CA, USA). A total of 200 ng of RNA in 7.7 μl of nuclease-free water was added to 2 μl 10× reverse transcriptase buffer, 4.4 μl 25 mM magnesium chloride, 4 μl deoxyNTP mixtures, 1 μl random hexamers, 0.4 μl RNase inhibitor and 0.5 μl reverse transcriptase (50 U/μl) in a final reaction volume of 20 μl. The reaction was performed for 10 min at 25° C. (annealing), 30 min at 48° C. (cDNA synthesis) and 5 min at 95° C. (enzyme denaturation).
Real-time quantitative PCR was carried out with an ABI 7500 Fast Real-time PCR System (Applied Biosystems, CA, USA). Two micro liters of sample cDNA were used in each PCR reaction, with β-actin gene as a reference for normalization. The primers and probes for rat β-actin and GFAP were ordered from Taqman's assay-on-demand database. The PCR reaction was performed under a default profile consisting of 95° C. for 20 seconds (enzyme denaturation) and 40 cycles of amplification (denaturation 3 seconds, annealing and extension 30 seconds). Some of the real-time RT-PCR reactions were separated on an agarose gel for visual confirmation of discrete products (data not shown).
Relative quantitation of the target mRNA was calculated using the comparative threshold cycle (CT) methods as described in the User Bulletin #2 (ABI Prism 7700 Sequence Detection System). CT indicates the fractional cycle number at which the amount of amplified target reaches a fixed threshold within the linear phase of gene amplification. ΔCT, which reflects the difference between CT target and CT β-actin, is inversely correlated to the abundance of mRNA transcripts in the samples. ACT for each sample was normalized against control experiment or calibrator and expressed as ΔΔCT. Relative quantitation is given by 2^−ΔΔCT to express the up-regulation or down-regulation of the target gene under the treatments compared to the control.

O=C(O[C@@H]1Cc2c(O)cc(O)cc2O[C@@H]1c1cc(O)c(O)c(O)c1)c1cc(O)c(O)c(O)c1 [EGCG, epigallocatechin gallate]
half-life in human plasma [1]: about 5 hours
IC50 (T6/GFAP-lacZ cells [2]): 31 µM
proliferation inhibition (fewer cells than control) (T6/GFAP-lacZ cells [3]; 25 μM EGCG): significant proliferation inhibition
PDGF-induced GFAP-lacZ elevation, % of the transgenic control (GFAP-lacZ transgene; 10 ng/ml PDGF-BB, incubation with 10 μM of EGCG for two days): 60%
GFAP-lacZ transgene expression (β-galactosidase activity), % of the control (GFAP-lacZ transgene; 5 μM EGCG, 2 hours): 82%
GFAP-lacZ transgene expression (β-galactosidase activity), % of the control (GFAP-lacZ transgene; 20 μM EGCG, 2 hours): 55%
GFAP-lacZ transgene expression (β-galactosidase activity), % of the control level (GFAP-lacZ transgene; 20 μM EGCG, 4 hours): 73%
inhibitory effect on GFAP-lacZ transgene expression (GFAP-lacZ transgene; EGCG all dosages (up to 20 μM), 24 hours): completely abolished
β-galactosidase activity, % of TGF-β1-alone control (GFAP-lacZ transgene; concurrent: 10 ng/ml TGF-β1 with 20 μM EGCG 26 hours): 66%
β-galactosidase activity, % of TGF-β1-alone control (GFAP-lacZ transgene; sequential: 10 ng/ml TGF-β1 24 hours, then 20 μM EGCG 2 hours, not statistically significant): 87%
PDGF-induced GFAP elevation, % of the endogenous control (endogenous rat GFAP mRNA; 10 ng/ml PDGF, incubation with 10 μM of EGCG for two days): 8%
GFAP transcription, % of the control level (endogenous rat GFAP mRNA; 130 nM EGCG, 48 hours): 34%
endogenous GFAP mRNA, % of the control (endogenous rat GFAP mRNA; 10 μM EGCG, 24 hours (maximum suppression)): 39%
GFAP transcription at increasing dosages (endogenous rat GFAP mRNA; EGCG dosages above 130 nM up to 20 μM, 48 hours): no further suppression
endogenous GFAP mRNA, % of TGF-β1-alone control (endogenous rat GFAP mRNA; concurrent: 1 ng/ml TGF-β1 with 5 μM EGCG, 56 hours): 29%
endogenous GFAP mRNA, % of TGF-β1-alone control (endogenous rat GFAP mRNA; sequential: 1 ng/ml TGF-β1 48 hours, then 5 μM EGCG 8 hours): 45%

O=c1c(-c2ccc(O)cc2)coc2cc(O)cc(O)c12 [genistein]
IC50 (T6/GFAP-lacZ cells [2]; Rattus norvegicus): 25 µM
proliferation inhibition (fewer cells than control) (T6/GFAP-lacZ cells [3]; 40 μM genistein): significant proliferation inhibition
GFAP-lacZ transgene expression (β-galactosidase activity), % of the control (GFAP-lacZ transgene; 40 μM genistein, 24 hours (largest suppression)): 65%
PDGF-BB-induced GFAP-lacZ, % of PDGF-BB-alone control (GFAP-lacZ transgene; concurrent: 40 μM genistein and 10 ng/ml PDGF-BB, 72 hours): 48%
β-galactosidase activity, % of the TGF-β1-alone control (GFAP-lacZ transgene; concurrent: 40 μM genistein and 10 ng/ml TGF-β1, 48 hours): 43%
PDGF-BB-induced GFAP-lacZ, % of PDGF-BB-alone control (GFAP-lacZ transgene; sequential: 10 ng/ml PDGF-BB 48 hours, then 40 μM genistein 24 hours): 79%
suppressing effect on TGF-β1-induced β-galactosidase activity (GFAP-lacZ transgene; sequential: 10 ng/ml TGF-β1 24 hours, then 40 μM genistein 24 hours): negligible
effect on endogenous GFAP mRNA (endogenous rat GFAP mRNA; 10 μM genistein, time course 0-72 hours): less predictable, ranging from suppression at 24 hours to induction at 72 hours
endogenous GFAP mRNA, % of the control (endogenous rat GFAP mRNA; 20 μM genistein, 8 hours): 23%
endogenous GFAP mRNA, % of the control (endogenous rat GFAP mRNA; 20 μM genistein, 72 hours): 43%
TGF-β1-induced GFAP transcription, % of the control (endogenous rat GFAP mRNA; concurrent: 20 μM genistein and 1 ng/ml TGF-β1, 56 hours): 14%
endogenous GFAP transcription, % of the PDGF-BB-alone control (endogenous rat GFAP mRNA; concurrent: 20 μM genistein and 10 ng/ml PDGF, 48 hours): 6%
reliable inhibitory concentration for GFAP mRNA (endogenous rat GFAP mRNA; genistein dose experiment, 48 hours): higher than 10 μM
TGF-β1-induced GFAP transcription, % of the control (endogenous rat GFAP mRNA; sequential: 1 ng/ml TGF-β1 48 hours, then 20 μM genistein 8 hours): 26%
endogenous GFAP transcription, % of the PDGF-BB-alone control (endogenous rat GFAP mRNA; sequential: 10 ng/ml PDGF 24 hours, then 20 μM genistein 24 hours): 8.6%
